Measurements reported in article PMC3877906, “Polypeptide Modulators of TRPV1 Produce Analgesia without Hyperthermia” (Marine Drugs, 2013).
Entries after “also recorded” stand apart in the source; their conditions may differ.

Assays:
TRPV1 = assay: low pH-induced TRPV1 receptor currents/activation; type: cell-based; conditions: pH 5.5
From the text: The residues responsible for APHC’s activity are not determined. […] These differences in pharmacology were expressed further in the in vivo results.

TRPV3 = TRPV3 activity, oocyte electrophysiology or agonist-induced fluorescence readout; type: cell-based; conditions: concentrations of up to 2 μM; data not shown
ASIC3 = ASIC3 activity, oocyte electrophysiology or agonist-induced fluorescence readout; type: cell-based; conditions: concentrations of up to 2 μM; data not shown
p2X3 = p2X3 activity, oocyte electrophysiology or agonist-induced fluorescence readout; type: cell-based; conditions: concentrations of up to 2 μM; data not shown
CD-1 mice [1] = assay: open-field locomotor activity test; type: in vivo, mouse; conditions: 0.1 mg/kg i.v.; vs saline; n = 9 per group; 3 min recording
From the text: We conducted multiple in vivo experiments to assess the biological effects of APHC1 and APHC3, acting via modulation of TRPV1, on temperature sensation and inflammation. Possible negative effects of investigated components on the central nervous system were first excluded. We evaluated APHC1/3 in open-field locomotor activity tests as compounds capable of reducing locomotor activity could misrepresent results of other behavioral tests (particularly in pain models). […] There was no significant effect detected for either polypeptide at a dose of 0.1 mg/kg i.v. (Figure 3a).
All experiments were performed in accordance with the recommendations in the “Principles of Laboratory Animal Care” and after approval by the Animal Care and Use Committee of the Branch of the IBCh RAS (Pushchino, Russia). Adult male CD-1 mice (Animal Breeding Facility Branch of Shemyakin-Ovchinnikov Institute of Bioorganic Chemistry, Russian Academy of Sciences, Pushchino, Russia) weighing 20–25 g were used. […]
The significance of the data was determined by analysis of variance (ANOVA) followed by Tukey’s test. […]
Open-field activity was measured using a system that counts interruptions in a set of photo beams (OPTO—VARIMEX (Columbus Instruments, Columbus, OH, USA) and ATM3 Auto System using Auto-Track Version 4.2 software). Spontaneous locomotor activity was recorded for 3 min.

CD-1 mice [2] = assay: capsaicin-induced acute pain test; type: in vivo, mouse; conditions: n = 9; for pain-related behavior after capsaicin, reduction: 0.1 mg/kg i.v. 15 min before intraplantar capsaicin (3 µg/10 µL), "~44% of response"; for pain-related behavior after capsaicin, in words: 0.1 mg/kg i.v., vs saline
From the text: Because capsaicin is a selective agonist of the TRPV1 receptor, we tested the efficacy of APHC1 and APHC3 as TRPV1 receptor antagonists using the capsaicin-induced pain model. Intraplantar injection of capsaicin evokes pain-related behavior such as licking and shaking the injected paw. TRPV1 knockout mice are insensitive to the capsaicin test and most antagonists that block capsaicin-induced currents in vitro also block capsaicin induced pain-related behavior in mice.
(§1) All experiments were performed in accordance with the recommendations in the “Principles of Laboratory Animal Care” and after approval by the Animal Care and Use Committee of the Branch of the IBCh RAS (Pushchino, Russia). Adult male CD-1 mice (Animal Breeding Facility Branch of Shemyakin-Ovchinnikov Institute of Bioorganic Chemistry, Russian Academy of Sciences, Pushchino, Russia) weighing 20–25 g were used. Animals were allowed to acclimate in the laboratory for at least five days. Mice were housed at room temperature (23 ± 2 °C) on a 12 h light–dark cycle with food and water available ad libitum. Polypeptides or vehicle was administered intravenously 15 min before testing.
(§2) The significance of the data was determined by analysis of variance (ANOVA) followed by Tukey’s test. Data are presented as mean ± S.E.
Intraplantar injection of capsaicin (3 µg/10 µL in 10% ethanol/90% saline) was used to elicit capsaicin-induced acute pain [36]. Immediately after the capsaicin injection, mice were placed inside glass cylinders for observation. Intraplantar injection of capsaicin evoked licking and shaking of the injected paw in mice. The duration of episodes of licking and paw shaking were recorded.

CD-1 mice [3] = assay: formalin test; type: in vivo, mouse; conditions: for formalin-induced response: 0.01 mg/kg; for inhibition of second phase of formalin test: 10.01–60 min; for effect on first phase of formalin test, in words / effect on second phase of formalin test, in words: vs saline
From the text: The formalin test is a complex in vivo model of pain where TRPV1’s function is more integrative than perceptive. In the mouse, intraplantar injections of formalin produce a biphasic behavioral reaction. The molecular mechanisms underlying formalin-induced pain are based on tissue damage, non-specific activation of nociceptors and direct activation of TRPA1 receptors (measured in phase I) that drive the local neurogenic inflammation and CNS sensitization (measured in phase 2). APHC1 and APHC3 were tested on TRPA1 for inhibitory/activation effects.
as §1, §2
Formalin (10 μL 2% in saline) was injected intradermally into the left hind paw. […] This test produces a distinct biphasic response. The total duration of paw flinching during the early phase (0–10 min) and late phase (10.01–60 min) were summed.

CD-1 mice [4] = assay: CFA-induced thermal hyperalgesia; type: in vivo, mouse; conditions: i.v., n = 9; for reversal of CFA-induced thermal hyperalgesia: 0.1-0.01 mg/kg (dose of this value not stated), 24 h after CFA, 53 °C; for CFA-induced thermal hyperalgesia, in words: 0.1-0.01 mg/kg, vs saline
From the text: CFA-induced thermal hyperalgesia depends on TRPV1 activation; this was shown in TRPV1-deficient mice and using TRPV1 antagonists. CFA-induced thermal hyperalgesia is a complex process where different inflammatory pathways acting via several mechanisms lower the TRPV1 temperature threshold and influence thermal sensitivity. CFA-treated mice developed thermal hyperalgesia in the injected paw, this manifested as a decrease in the latency to paw withdrawal in response to thermal stimuli (Figure 4c).
as §1, §2
Complete Freund’s adjuvant suspended in an oil/saline (1:1) emulsion, was injected into the plantar surface of the left hind-paw of mice (20 μL/paw). Control mice received 20 μL of saline (i.pl.). Injected paw withdrawal latencies in response to thermal stimulation (53 °C) were measured 24 h after CFA injection.

CD-1 mice [5] = assay: core body temperature (rectal measuring); type: in vivo, mouse; conditions: for change in core body temperature: n = 7; for core body temperature, in words: rectal measuring, mice, vs saline
Procedure: Admittedly, hyperthermia is considered a critical side effect of TRPV1 antagonists, so we assessed the effect of the polypeptides on body temperature. Polypeptides were administered intravenously at doses 0.1 mg/kg and 0.5 mg/kg, and rectal temperature was monitored (Figure 5a,b).
as §1, §2
The MLT1404 Rectal Temperature Probe and Chart Power Lab (ADInstruments Inc., Colorado Springs, CO, USA) was used to record body temperature. During recording, the animals were placed in a MLA5018 Rodent Restrainer (ADInstruments Inc., Colorado Springs, CO, USA). The adaptation period was 20 min. Core body temperature was recorded every minute for 20 min before and 100 min after test compound administration. AMG9810 was dissolved in DMSO and was injected intraperitoneally.

CD-1 mice [6] = assay: pain models in vivo, overall; design: species or system mouse; conditions: i.v.
Procedure: as §1, §2

[7] = system: TRPV1-dependent normal and diabetic bladder smooth muscle contractility; conditions: ref [17]; cited from earlier work
From the text: (§3) Polypeptide molecules typically have a greater specific activity at a particular receptor than do small molecule agonists, which makes them attractive for researchers and pharmaceutical companies. We have previously reported the isolation of a polypeptide modulator of TRPV1 from a homogenized extract of the sea anemone Heteractis crispa named APHC1 and its partial in vivo characterization. Two homological polypeptides (APHC2 and APHC3) were subsequently found in the same extract, but their biological activity has not yet been properly characterized. APHC1 and APHC3 are weak ...

serine proteases = conditions: ref [14],[16]; cited from earlier work
From the text: as §3

For “APHC1: polypeptide modulator of TRPV1 from sea anemone Heteractis crispa; homologous to BPTI/Kunitz type serine-protease inhibitors; produced recombinantly in E. coli (GSICLEPKVVGPCTAYFRRFYFDSETGKCTVFIYGGCEGNGNNFETLRACRAICRA; left off: TRX, end not stated, cleaved)”, the “effect on low pH-induced TRPV1 activation, in words” value (TRPV1) was “unable to observe any effect”, the “agonistic/antagonistic activity at TRPV3” value (TRPV3) was “neither agonistic nor antagonistic activity” and the “agonistic/antagonistic activity at ASIC3” value (ASIC3) was “neither agonistic nor antagonistic activity”. For the same substance, the “agonistic/antagonistic activity at p2X3” value (p2X3) was “neither agonistic nor antagonistic activity”, the “travelled distance and rearing, open-field locomotor activity” value (CD-1 mice [1]) was “did not significantly alter normal mouse behavior” and the “pain-related behavior after capsaicin, reduction” value (CD-1 mice [2]) was ~ 44%. The “pain-related behavior after capsaicin, in words” value (CD-1 mice [2]) was “significantly reduced the behavioral response to capsaicin; also recorded: significantly reduced pain-related behavior”, the formalin-induced response (CD-1 mice [3]) was “no significant influence” and the “attenuation of first phase of formalin test” value (CD-1 mice [3]; 0.1 mg/kg i.v., 0–10 min, n = 9, "39% of response") was 39%. For the same substance, the “inhibition of second phase of formalin test” value (CD-1 mice [3]; 0.1 mg/kg i.v., n = 9) was 70%, the “effect on first phase of formalin test, in words” value (CD-1 mice [3]; 0.1 mg/kg i.v., n = 9) was “significantly attenuated the first phase” and the “effect on second phase of formalin test, in words” value (CD-1 mice [3]; 0.1 mg/kg i.v., n = 9) was “significantly inhibited the second phase”. For the same substance, the “reversal of CFA-induced thermal hyperalgesia” value (CD-1 mice [4]) was ~ 80%, the “CFA-induced thermal hyperalgesia, in words” value (CD-1 mice [4]) was “Dose dependent inhibition of CFA-induced thermal hyperalgesia; also recorded: significantly reduced thermal hyperalgesia; also recorded: clearly dose-dependent” and the “change in core body temperature” value (CD-1 mice [5]; 0.1 mg/kg i.v., in the 30 min after administration, stayed at this level) was −0.8 °C. For the same substance, the “change in core body temperature” value (CD-1 mice [5]; 0.5 mg/kg i.v., at the end of data acquisition time) was −2.1 °C, the “core body temperature, in words” value (CD-1 mice [5]) was “did not cause hyperthermia; also recorded: significantly decreased core body temperature in both tested doses; also recorded: moderate decrease in core body temperature” and the “doses with antinociceptive and analgesic activity in vivo” value (CD-1 mice [6]) was 0.01 to 0.1 mg/kg. The “modulation of TRPV1-dependent normal and diabetic bladder smooth muscle contractility” value [7] was “modulate” and the “inhibition of serine proteases” value (serine proteases) was “weak inhibitors”.

With “APHC3: polypeptide from Heteractis crispa highly homologous to APHC1, differing in four of 56 amino acids; produced recombinantly in E. coli (GSICLEPKVVGPCTAYFPRFYFNSETGKCTPFIYGGCEGNGNNFETLRACRGICRA; left off: TRX, end not stated, cleaved)” the “effect on low pH-induced TRPV1 activation, in words” value (TRPV1) was “inhibited acid-induced (pH 5.5) activation of the receptor”, the “agonistic/antagonistic activity at TRPV3” value (TRPV3) was “neither agonistic nor antagonistic activity” and the “agonistic/antagonistic activity at ASIC3” value (ASIC3) was “neither agonistic nor antagonistic activity”. For the same substance, the “agonistic/antagonistic activity at p2X3” value (p2X3) was “neither agonistic nor antagonistic activity”, the “travelled distance and rearing, open-field locomotor activity” value (CD-1 mice [1]) was “did not significantly alter normal mouse behavior” and the “pain-related behavior after capsaicin, reduction” value (CD-1 mice [2]) was ~ 44%. The “pain-related behavior after capsaicin, in words” value (CD-1 mice [2]) was “significantly reduced the behavioral response to capsaicin; also recorded: significantly reduced pain-related behavior”, the formalin-induced response (CD-1 mice [3]) was “no significant influence” and the “inhibition of second phase of formalin test” value (CD-1 mice [3]; 0.1 mg/kg i.v., n = 9) was 86%. For the same substance, the “effect on first phase of formalin test, in words” value (CD-1 mice [3]; 0.1 mg/kg i.v., n = 9) was “did not affect the first phase of the response; also recorded: no significant effect on phase 1”, the “effect on second phase of formalin test, in words” value (CD-1 mice [3]; 0.1 mg/kg i.v., n = 9) was “almost completely blocked phase 2; also recorded: significantly inhibited the second phase” and the “reversal of CFA-induced thermal hyperalgesia” value (CD-1 mice [4]) was 34%. The “CFA-induced thermal hyperalgesia, in words” value (CD-1 mice [4]) was “Dose dependent inhibition of CFA-induced thermal hyperalgesia; also recorded: significantly reduced thermal hyperalgesia”, the “change in core body temperature” value (CD-1 mice [5]; 0.1 mg/kg i.v., 60 min after administration) was −0.6 °C and the “change in core body temperature” value (CD-1 mice [5]; 0.5 mg/kg i.v., not statistically significant) was −0.4 °C. The “core body temperature, in words” value (CD-1 mice [5]) was “did not cause hyperthermia; also recorded: modest hypothermic effect; also recorded: moderate decrease in core body temperature”, the “doses with antinociceptive and analgesic activity in vivo” value (CD-1 mice [6]) was 0.01 to 0.1 mg/kg and the “modulation of TRPV1-dependent normal and diabetic bladder smooth muscle contractility” value [7] was “modulate”. For the same substance, the “inhibition of serine proteases” value (serine proteases) was “weak inhibitors”.
